Several values for one entry are separate records, joined by “and”; a condition that tells them apart may be missing. Identical values can stand only once. Counter-ions that a name gives are not always drawn.

In data set [1] the test system is HCT-116 cells. Put plainly: Apoptosis assay (Cell Death Detection ELISA), HCT-116. Format: cell-based, human. The note with it: 48 hours, two single values, dihydrochloride. Here is the method:
(§1) Apoptosis Assay—Apoptosis was analyzed using the Cell Death Detection ELISA (Roche, Indianapolis, Ind.) measuring cytoplasmic histone-associated mono- and oligonucleosome DNA fragments. Procedures were carried out according to the manufacturers protocol. Briefly, 1×10^5 cells were plated in 60 mm dishes and treated with various doses of ARA-211 or vehicle for 48 hours. Cells were lysed with the provided lysis buffer and lysate was incubated on the ELISA plate for 1 hour to capture the histone associated DNA indicative of apoptotic cells. Anti-DNA peroxidase conjugated antibody was added to detect the cleaved DNA and the microplate was washed and developed with ABTS substrate which was quantitated by microplate reader at 405 nm.
On the technique in general: In an ELISA, binding on a coated surface is turned into a signal by an enzyme label.

Data set [2] concerns P-Erk 1/2. In words: P-Erk 1/2 levels (Western blotting), ACHN. The class given is cell-based, human. As for the experimental part: (§2) Western Blotting—Treated cell samples were lysed in 30 mM HEPES, 10 mM NaCl, 5 mM MgCl2, 25 mM NaF, 1 mM EGTA, 1% Triton-X-100, 10% Glycerol, 2 mM Sodium orthovanidate, 10 μg/mL aprotinin, 10 μg/mL soybean trypsin inhibitor, 25 μg/mL leupeptin, 2 mM phenylmethylsulfonylfluoride (PMSF), 6.4 mg/mL p-nitrophenylphosphate for 30 minutes at 4° C., and proteins run on SDS-PAGE gels then transferred to nitrocellulose membranes. Membranes were blocked in either 5% milk in PBS, pH 7.4, containing 0.1% Tween-20 (PBS-T) or 1% BSA in TBS, pH 7.5, containing 0.1% Tween-20 (TBS-T). Phospho-STAT3 and phospho-AKT antibodies were diluted in 1% BSA in TBS-T while phospho-c-Raf, phospho-Mek, and phospho-p44/p42 MAPK antibodies (Cell Signaling) were diluted in 5% milk in PBS-T for either 1 hour at room temperature or overnight at 4° C. HRP-conjugated secondary antibodies (Jackson ImmunoResearch, West Grove, Pa.) were diluted in 5% milk in PBS-T or TBS-T at a 1:1000 dilution for one hour at room temperature. Western blots results were visualized using enhanced chemiluminescence. Stripping of the membranes for reblotting was done using stripping buffer (62.5 mM Tris pH 7.6, 2% SDS, 0.7% 2-mercaptoethanol) at 50° C. for 30 minutes.
(In general: In western blotting, separated proteins are transferred to a membrane and probed.)

Data set [3] relates to SF-539 cells. Put plainly: Apoptosis assay (Cell Death Detection ELISA), SF-539. Format: cell-based, human. The following applies: 48 hours. As for the experimental part: as §1
For data set [4], the system named is MDA-MB-231 cells. In words: Apoptosis assay (Cell Death Detection ELISA), MDA-MB-231. The following applies: 48 hours. The class given is cell-based, human. Here is the method: as §1
The subject of data set [5] is MDA-MB-231 cells. In words: Anchorage-dependent growth (MTT assay), MDA-MB-231. The class given is cell-based, human. Here is the method: (§3) MTT Assay—2000 cells per well were plated into 96 well tissue culture plates, and the cells were allowed to attach overnight at 37° C. with 10% CO2. Cells were then treated with increasing concentrations of ARA-211, or vehicle (DMSO) and incubated for four days. At that time treatment medium was removed and replaced with 100 μl of lmg/ml MTT (Sigma-Aldrich, St. Louis, Mo.) in media and incubated at 37° C., 10% CO2 for 3 hours. After 3 hours the MTT media was removed and replaced with 100 μl/well of DMSO, rocked at room temperature for 5 minutes, then absorbance read at 540 nm on a micro-plate reader.

Another data set relates to ACHN cells. Put plainly: Nude mouse xenograft model, ACHN (s.c.). The class given is in vivo, nude mice. The note with it: i.p. 200 mpk/day. The text has this:
(§4) Anti-tumor activity in nude mouse xenograft model—Female athymic nude (nu/nu) mice, 5-6 weeks old, were purchased from Charles River (Wilmington, Mass.) and allowed to acclimate in the animal facility for one week. After harvesting, A-549, SNB-19, ACHN, and HCT-116 cells were, resuspended in sterile PBS, and injected s.c. into the right and left flanks (10×10^6 cells per flank) of the mice as previously described (Sun et al., 2005). For MDA-MB-231, cells were harvested and resuspended in PBS (10×10^6 cells per 50 μl) and an equal volume of Matrigel (BD Biosciences, San Jose, Calif.). 100 μl of MDA-MB-231 cells in PBS/Matrigel were injected s.c. into the mammary fat pads between the 2nd and 3rd nipples on each side of the mice. Once the tumors reached approximately 200-300 mm^3 the mice were randomized and treated i.p. with 0.1 ml vehicle (PBS) or ARA-211. Each treatment group consisted of five mice (2 tumors per mouse, a total of 10 tumors). The tumor volumes were determined by measuring the length (l) and width (w) and calculating the volume (V=w^2l/2). Statistical significance between the control and treated animals was determined using a student's t test.

Data set [6] has as its system P-Erk 1/2. In words: P-Erk 1/2 levels, MCF-7. The class given is cell-based, human. The note with it: MCF-7 (breast). Here is the method: as §2
Data set [7] deals with HCT-116 cells. In words: Anchorage-dependent growth (MTT assay), HCT-116. The class given is cell-based, human. Here is the method: as §3
In general terms: Formazan colour is commonly taken as a measure of viable cells.

The next data set concerns SNB-19 cells. In words: Total cellular cAMP measurement, SNB-19. Format: cell-based, human. Here is the method:
(§5) Total cellular cAMP measurement—The measurement of total cellular cAMP was done using a cAMP Biotrak ™ Enzymeimmunoassay (EIA) system (Amersham Biosciences, Piscataway, N.J.) according to the manufacturer's protocol. Briefly, 2000 cells were plated into each well of a 96 well plate. The next day cells were treated with increasing concentrations of ARA-211 or with vehicle for one hour. Alternatively, MDA-MB-231 cells were pre-treated with antagonists to the α1 (Prazosin, Sigma), α2 (Yohimbine, Sigma), β1 (Metoprolol, Sigma), and β2 (ICI 118.551, Sigma) adrenergic receptors at 100 nM for 15 minutes followed by treatment with 10 μM ARA-211 for 45 minutes. Cells were then lysed directly in the wells using the supplied lysis buffer. The lysate was transferred to a 96-well cAMP ELISA plate, and results were quantified using a Wallac Victor 2 plate reader.

The test system of data set [8] is A-549 cells. In words: Nude mouse xenograft model, A-549 (s.c.). The following applies: A-549 xenograft; i.p. 75 mpk/day. The class given is in vivo, nude mice.
From the text: as §4

Data set [9] deals with A-549 cells. Put plainly: Total cellular cAMP measurement, A-549. The class given is cell-based, human. Here is the method: as §5
Data set [10] concerns A-549 cells. In words: Anchorage-dependent growth (MTT assay), A-549. The class given is cell-based, human. As for the experimental part: as §3
The test system of data set [11] is P-Erk 1/2. Put plainly: P-Erk 1/2 levels (Western blotting), HCT-116. Format: cell-based, human. Here is the method:
as §2

Data set [12] concerns SF-539 cells. Put plainly: Anchorage-independent growth (soft agar assay), SF-539. The class given is cell-based, human. Here is the method: Soft Agar Assay—Anchorage independent growth assays were performed as previously described (Lerner et al., 1997). Briefly, agar was diluted to 0.3% in propagation media containing 20,000 cells and either vehicle or ARA-211 and 1 ml of cell/agar mixture plated on top of 2 ml of a 0.6% layer of agar in medium alone. Cells were grown for three to four weeks at 37° C., 10% Co2 and were fed weekly with 100 μl per well of media/treatment. Quantification of colonies was done using a GS-700 scanning densitometer.

As for `CC(C)(C)NCC(O)c1ccc(O)c(CO)n1` (centres unmarked) [ARA-211, 2-hydroxymethyl-3-hydroxy-6-(1-hydroxy-2-tert-butylaminoethyl) pyridine, dihydrochloride], the “Apoptosis (% Induction)” value with HCT-116 cells [1] was 0% and 1.2%; in the data set with SF-539 cells [3] it was 9 ± 1.7%; with MDA-MB-231 cells [4], 15 ± 4%. For the same molecule, the figures for the “P-Erk ½ (% Inhibition)” value with P-Erk 1/2 [2] and in the data set with P-Erk 1/2 [11] were 91% and 0%, respectively. Moreover, the “Anchorage Dependent Growth (% Inhibition)” value with MDA-MB-231 cells [5] was found to be 60.6 ± 6.5%; with HCT-116 cells [7], 6.5 ± 4%; in the data set on A-549 cells [10], 9.6 ± 6.1%. Also, the values for the growth of tumors entry in the data set on ACHN cells and in the data set on A-549 cells [8] were “suppressed tumor growth” and “is not affected”, respectively. The “inhibition of P-Erk 1/2 levels” value with P-Erk 1/2 [6] is given as “did not”. The “cAMP (Fold Induction)” value with SNB-19 cells is recorded as 1.2 ± 0.4 Fold; in the data set on A-549 cells [9], 1.3 ± 0.3 Fold. Further, the “Anchorage Independent Growth (% Inhibition)” value in the data set on SF-539 cells [12] amounted to 94.4 ± 1.5%.

The values above are taken from US7713960B2, “Inhibition of the Raf/Mek/P-Erk pathway for treating cancer” (University of South Florida, priority 2005, dated 2010).
